Experimental data published in ChEMBL document CHEMBL1909046, “DrugMatrix in vitro pharmacology data”.
*1 amine or outer side, *2 acyl side, *3 side chain or, on linkers, in order; H or OH if unused. Where a SMILES comes first, the peptide text is derived from it. Bridges are numbered along the chain shown (N, C = ends). Roman numbers before positions name the chains, in order. [ ]: non-standard residue; d: D form. Actinocin(1to9) = Cc1c2oc3c(C)ccc(C(=O)[*:2])c3nc-2c(C(=O)[*:1])c(N)c1=O; NMeV = CN[C@H](C(=O)O)C(C)C; Sar = CNCC(=O)O

Experiments:
[1] = biological target: T1, Polyunsaturated fatty acid lipoxygenase ALOX15 (Oryctolagus cuniculus, UniProt P12530); assay: biochemical; type: tissue-based, Reticulocytes; conditions: reticulocytes;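 note: inhibition of 15-lipoxygenase enzyme activity measured with linoleic acid as the substrate; in other assays of this panel Not Active means under 50% inhibition at 10 µM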
T1 sequence (P12530 whole entry): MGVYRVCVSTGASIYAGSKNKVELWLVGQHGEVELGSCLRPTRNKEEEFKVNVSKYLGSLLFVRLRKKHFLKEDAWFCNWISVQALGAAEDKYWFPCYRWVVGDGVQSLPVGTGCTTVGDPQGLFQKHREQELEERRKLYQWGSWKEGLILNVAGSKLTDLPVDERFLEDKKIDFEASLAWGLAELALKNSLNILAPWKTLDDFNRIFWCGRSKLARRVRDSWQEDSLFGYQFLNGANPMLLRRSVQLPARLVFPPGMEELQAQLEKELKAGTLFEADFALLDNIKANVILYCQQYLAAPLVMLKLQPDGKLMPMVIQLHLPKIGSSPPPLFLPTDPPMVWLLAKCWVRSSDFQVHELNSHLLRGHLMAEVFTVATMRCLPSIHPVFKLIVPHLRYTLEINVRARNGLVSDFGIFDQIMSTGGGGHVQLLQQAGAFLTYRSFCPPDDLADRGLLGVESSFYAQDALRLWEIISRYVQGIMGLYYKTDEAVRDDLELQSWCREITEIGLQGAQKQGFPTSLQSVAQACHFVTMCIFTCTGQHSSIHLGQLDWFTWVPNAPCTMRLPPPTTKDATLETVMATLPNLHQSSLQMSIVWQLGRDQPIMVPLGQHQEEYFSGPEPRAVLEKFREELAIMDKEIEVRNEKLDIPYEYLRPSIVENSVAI

[2] = DRUGMATRIX: Phosphodiesterase PDE3 enzyme inhibition (substrate: [3H]cAMP + cAMP); type: tissue-based, Homo sapiens; conditions: platelet; Not Active = under 50% inhibition at 10 µM
[3] = biological target: Cytochrome P450 2C9 (Homo sapiens, UniProt P11712); conditions: bti-tn-5b1-4; note: in other assays of this panel Not Active means under 50% inhibition at 10 µM
Cytochrome P450 2C9, sequence (P11712 whole entry): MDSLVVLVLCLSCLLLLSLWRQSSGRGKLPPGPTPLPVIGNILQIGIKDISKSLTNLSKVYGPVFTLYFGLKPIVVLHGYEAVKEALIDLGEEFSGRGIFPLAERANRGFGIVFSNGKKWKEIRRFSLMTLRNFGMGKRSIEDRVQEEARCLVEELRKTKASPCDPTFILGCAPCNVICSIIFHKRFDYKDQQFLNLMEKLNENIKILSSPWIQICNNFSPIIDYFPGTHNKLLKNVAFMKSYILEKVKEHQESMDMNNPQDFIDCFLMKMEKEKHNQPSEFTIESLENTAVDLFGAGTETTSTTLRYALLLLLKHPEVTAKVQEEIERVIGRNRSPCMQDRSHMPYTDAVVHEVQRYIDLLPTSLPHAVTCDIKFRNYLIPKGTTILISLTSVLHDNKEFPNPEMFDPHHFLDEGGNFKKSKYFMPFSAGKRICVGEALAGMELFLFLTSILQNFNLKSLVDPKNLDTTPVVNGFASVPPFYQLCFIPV

[4] = biological target: Melanocortin receptor 5 (Homo sapiens, UniProt P33032); type: cell membranes, HEK293, Membrane; conditions: hek293; note: in other assays of this panel Not Active means under 50% inhibition at 10 µM
Melanocortin receptor 5, sequence (P33032 whole entry): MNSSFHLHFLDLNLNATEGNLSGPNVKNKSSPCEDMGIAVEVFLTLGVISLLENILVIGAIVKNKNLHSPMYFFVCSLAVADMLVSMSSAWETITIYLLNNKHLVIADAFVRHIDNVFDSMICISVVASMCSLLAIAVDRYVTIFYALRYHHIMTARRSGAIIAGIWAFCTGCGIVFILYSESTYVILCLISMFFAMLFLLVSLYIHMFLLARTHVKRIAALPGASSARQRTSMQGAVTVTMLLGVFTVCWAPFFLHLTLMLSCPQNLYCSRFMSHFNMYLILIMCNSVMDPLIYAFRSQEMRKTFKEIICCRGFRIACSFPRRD

[5] = biological target: T2, Nitric oxide synthase, inducible (Mus musculus, UniProt P29477); parameters: species or system Escherichia coli;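 note: inhibition of iNOS enzyme activity measured with L-arginine as substrate; in other assays of this panel Not Active means under 50% inhibition at 10 µM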
T2 sequence (P29477 whole entry): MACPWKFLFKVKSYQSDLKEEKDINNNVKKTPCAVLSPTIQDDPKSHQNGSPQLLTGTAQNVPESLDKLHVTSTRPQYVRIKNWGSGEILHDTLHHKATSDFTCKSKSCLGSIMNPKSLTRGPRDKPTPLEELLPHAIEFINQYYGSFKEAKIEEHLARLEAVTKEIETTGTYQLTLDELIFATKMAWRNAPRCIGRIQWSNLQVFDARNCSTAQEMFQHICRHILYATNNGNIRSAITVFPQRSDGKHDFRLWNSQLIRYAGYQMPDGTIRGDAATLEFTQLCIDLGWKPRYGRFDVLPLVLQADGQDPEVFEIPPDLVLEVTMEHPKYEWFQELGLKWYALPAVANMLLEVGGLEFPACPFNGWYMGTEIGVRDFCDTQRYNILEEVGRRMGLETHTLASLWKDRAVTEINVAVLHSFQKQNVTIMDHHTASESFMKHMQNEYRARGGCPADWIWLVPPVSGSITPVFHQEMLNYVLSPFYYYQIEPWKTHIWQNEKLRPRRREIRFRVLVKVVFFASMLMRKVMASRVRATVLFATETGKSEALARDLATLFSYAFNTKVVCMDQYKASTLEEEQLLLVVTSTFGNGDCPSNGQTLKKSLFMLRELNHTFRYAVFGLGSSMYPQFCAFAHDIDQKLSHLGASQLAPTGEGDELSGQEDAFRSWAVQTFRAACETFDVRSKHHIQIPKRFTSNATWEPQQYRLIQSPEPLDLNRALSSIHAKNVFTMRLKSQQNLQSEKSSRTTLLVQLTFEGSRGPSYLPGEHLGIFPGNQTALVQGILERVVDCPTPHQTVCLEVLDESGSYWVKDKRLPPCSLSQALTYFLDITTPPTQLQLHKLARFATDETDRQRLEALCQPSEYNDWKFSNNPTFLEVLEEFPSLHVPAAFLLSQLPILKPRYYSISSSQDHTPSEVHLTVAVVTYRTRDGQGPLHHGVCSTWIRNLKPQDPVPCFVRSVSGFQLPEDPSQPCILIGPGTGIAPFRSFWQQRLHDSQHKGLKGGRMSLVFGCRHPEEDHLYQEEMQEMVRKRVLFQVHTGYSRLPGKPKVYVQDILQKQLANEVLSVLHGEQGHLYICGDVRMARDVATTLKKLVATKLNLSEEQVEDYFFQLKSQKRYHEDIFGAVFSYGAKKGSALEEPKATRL

[6] = biological target: T3, Cytochrome P450 2A6 (Homo sapiens, UniProt P11509); conditions: bti-tn-5b1-4; note: in other assays of this panel Not Active means under 50% inhibition at 10 µM
T3 sequence (P11509 whole entry): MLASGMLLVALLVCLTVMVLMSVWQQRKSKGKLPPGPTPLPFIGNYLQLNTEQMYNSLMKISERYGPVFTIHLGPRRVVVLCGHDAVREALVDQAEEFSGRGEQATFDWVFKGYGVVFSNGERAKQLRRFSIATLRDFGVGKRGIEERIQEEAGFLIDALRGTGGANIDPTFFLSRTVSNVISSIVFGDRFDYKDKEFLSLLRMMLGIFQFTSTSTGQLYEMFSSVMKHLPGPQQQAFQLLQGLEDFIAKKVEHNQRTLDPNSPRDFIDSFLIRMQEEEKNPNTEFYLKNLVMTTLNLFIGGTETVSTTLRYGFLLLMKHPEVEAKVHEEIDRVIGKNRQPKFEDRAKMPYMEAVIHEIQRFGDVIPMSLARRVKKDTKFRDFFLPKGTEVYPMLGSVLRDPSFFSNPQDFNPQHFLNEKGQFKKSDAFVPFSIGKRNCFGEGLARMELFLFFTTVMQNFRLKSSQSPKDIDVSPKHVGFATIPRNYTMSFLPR

[7] = biological target: T4, C-X-C chemokine receptor type 1 (Homo sapiens, UniProt P25024); note: in other assays of this panel Not Active means under 50% inhibition at 10 µM
T4 sequence (P25024 whole entry): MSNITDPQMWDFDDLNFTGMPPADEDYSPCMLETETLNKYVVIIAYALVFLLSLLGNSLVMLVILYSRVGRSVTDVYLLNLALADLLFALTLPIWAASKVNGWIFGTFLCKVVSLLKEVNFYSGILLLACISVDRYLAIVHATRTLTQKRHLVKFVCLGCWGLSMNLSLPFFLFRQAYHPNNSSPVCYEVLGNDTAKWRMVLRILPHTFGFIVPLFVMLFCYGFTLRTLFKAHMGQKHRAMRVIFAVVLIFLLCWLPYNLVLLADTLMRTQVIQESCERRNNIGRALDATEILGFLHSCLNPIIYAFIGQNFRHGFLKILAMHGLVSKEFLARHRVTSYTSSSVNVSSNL

CN(Cc1ccc(C(C)(C)C)cc1)Cc1cccc2ccccc12 [BUTENAFINE]
Not Active: IC50 [1] | IC50 [2] | Ki [2] | IC50 [3] | Ki [3] | IC50 [4] | IC50 [5] | IC50 [6] | Ki [6] | IC50 [7]

C[C@H](CS)C(=O)N1CCC[C@H]1C(=O)O [CAPTOPRIL]
Not Active: IC50 [1] | IC50 [2] | Ki [2] | IC50 [3] | Ki [3] | IC50 [4] | IC50 [5] | IC50 [6] | Ki [6] | IC50 [7]

Cc1ccc(-c2cc(C(F)(F)F)nn2-c2ccc(S(N)(=O)=O)cc2)cc1 [CELECOXIB]
Not Active: IC50 [1] | IC50 [2] | Ki [2] | IC50 [3] | Ki [3] | IC50 [4] | IC50 [5] | IC50 [6] | Ki [6] | IC50 [7]

O=C(O)CCCc1ccc(N(CCCl)CCCl)cc1 [CHLORAMBUCIL]
Not Active: IC50 [1] | IC50 [2] | Ki [2] | IC50 [3] | Ki [3] | IC50 [4] | IC50 [5] | IC50 [6] | Ki [6] | IC50 [7]

C[C@H](CCC(=O)O)[C@H]1CC[C@H]2[C@@H]3[C@H](O)C[C@@H]4C[C@H](O)CC[C@]4(C)[C@H]3C[C@H](O)[C@]12C [CHOLIC ACID]
Not Active: IC50 [1] | IC50 [2] | Ki [2] | IC50 [3] | Ki [3] | IC50 [4] | IC50 [5] | IC50 [6] | Ki [6] | IC50 [7]

Cc1cc(C2CCCCC2)n(O)c(=O)c1 [CICLOPIROX]
Not Active: IC50 [1] | IC50 [2] | Ki [2] | IC50 [3] | Ki [3] | IC50 [4] | IC50 [5] | IC50 [6] | Ki [6] | IC50 [7]

CC1=C2C(=CO[C@H](C)[C@H]2C)C(O)=C(C(=O)O)C1=O [CITRININ]
Not Active: IC50 [1] | IC50 [2] | Ki [2] | IC50 [3] | Ki [3] | IC50 [4] | IC50 [5] | IC50 [6] | Ki [6] | IC50 [7]

CC(C)(C)NCC(O)c1cc(Cl)c(N)c(Cl)c1 (stereo not given) [CLENBUTEROL]
Not Active: IC50 [1] | IC50 [2] | Ki [2] | IC50 [3] | Ki [3] | IC50 [4] | IC50 [5] | IC50 [6] | Ki [6] | IC50 [7]

Clc1cccc(Cl)c1NC1=NCCN1 [CLONIDINE]
Not Active: IC50 [1] | IC50 [2] | Ki [2] | IC50 [3] | Ki [3] | IC50 [4] | IC50 [5] | IC50 [6] | Ki [6] | IC50 [7]

CC1CC(OC(=O)C(O)c2ccccc2)CC(C)(C)C1 (stereo not given) [CYCLANDELATE]
Not Active: IC50 [1] | IC50 [2] | Ki [2] | IC50 [3] | Ki [3] | IC50 [4] | IC50 [5] | IC50 [6] | Ki [6] | IC50 [7]

Cc1c2oc3c(C)ccc(C(=O)N[C@@H]4C(=O)N[C@H](C(C)C)C(=O)N5CCC[C@H]5C(=O)N(C)CC(=O)N(C)[C@@H](C(C)C)C(=O)O[C@@H]4C)c3nc-2c(C(=O)N[C@@H]2C(=O)N[C@H](C(C)C)C(=O)N3CCC[C@H]3C(=O)N(C)CC(=O)N(C)[C@@H](C(C)C)C(=O)O[C@@H]2C)c(N)c1=O [DACTINOMYCIN] (I: T[dV]P[Sar][NMeV] / II: T[dV]P[Sar][NMeV]; ester I:1-I:C, II:1-II:C; linker I:N-II:N via Actinocin(1to9))
Not Active: IC50 [1] | IC50 [2] | Ki [2] | IC50 [3] | Ki [3] | IC50 [4] | IC50 [5] | IC50 [6] | Ki [6] | IC50 [7]

Cc1c(O)c(=O)ccn1C [DEFERIPRONE]
Not Active: IC50 [1] | IC50 [2] | Ki [2] | IC50 [3] | Ki [3] | IC50 [4] | IC50 [5] | IC50 [6] | Ki [6] | IC50 [7]

CNCCCN1c2ccccc2CCc2ccccc21 [DESIPRAMINE]
Not Active: IC50 [1] | IC50 [2] | Ki [2] | IC50 [3] | Ki [3] | IC50 [4] | IC50 [5] | IC50 [6] | Ki [6] | IC50 [7]

C[C@H]1O[C@@H](O[C@H]2[C@@H](O)C[C@H](O[C@H]3[C@@H](O)C[C@H](O[C@H]4CC[C@@]5(C)[C@H](CC[C@@H]6[C@@H]5C[C@@H](O)[C@]5(C)[C@@H](C7=CC(=O)OC7)CC[C@]65O)C4)O[C@@H]3C)O[C@@H]2C)C[C@H](O)[C@@H]1O [DIGOXIN]
Not Active: IC50 [1] | IC50 [2] | Ki [2] | IC50 [3] | Ki [3] | IC50 [4] | IC50 [5] | IC50 [6] | Ki [6] | IC50 [7]
